Assay results as given in paper PMC9229991, “Development of Reduced Peptide Bond Pseudopeptide Michael Acceptors for the Treatment of Human African Trypanosomiasis” (Molecules, 2022).
Where two headings read alike, the source gives them in different places.

Columns and labels:
[1] = target: T1, rhodesain (Trypanosoma brucei rhodesiense, UniProt Q95PM0); test: Rhodesain fluorogenic enzyme assay (Cbz-Phe-Arg-AMC substrate); format: biochemical, T. b. rhodesiense; conditions: for Rhodesain kinac: pH 5.5, room temperature; for Rhodesain k2nd: k2nd = kinact/Ki; for inhibition at 100 µM: preliminary screening at 100 µM, read-out: Rhodesain % of inhibition at screening concentration
T1 construct: made in house
T1 sequence (Q95PM0 entry or part of it): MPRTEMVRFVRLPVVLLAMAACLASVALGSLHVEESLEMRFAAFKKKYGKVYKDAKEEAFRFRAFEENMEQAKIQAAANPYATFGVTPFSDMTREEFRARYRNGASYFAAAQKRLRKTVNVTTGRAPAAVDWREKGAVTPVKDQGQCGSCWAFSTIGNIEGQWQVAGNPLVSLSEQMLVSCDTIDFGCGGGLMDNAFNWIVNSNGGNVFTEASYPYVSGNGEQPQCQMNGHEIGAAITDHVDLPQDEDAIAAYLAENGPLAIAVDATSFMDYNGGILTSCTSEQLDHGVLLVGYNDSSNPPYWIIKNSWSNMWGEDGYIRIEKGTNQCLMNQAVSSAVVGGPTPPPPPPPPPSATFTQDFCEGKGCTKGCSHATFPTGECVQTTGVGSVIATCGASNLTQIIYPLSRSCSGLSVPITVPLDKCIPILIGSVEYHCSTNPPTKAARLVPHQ
Method: All molecules were tested towards rhodesain utilizing fluorogenic assays in the presence of Cbz-Phe-Arg-AMC as substrate. […] Firstly, all the molecules were preliminarily screened at 100 µM (Figure 1A), and DMSO and E-64 were employed as the negative and positive control, respectively. Since SPR10–SPR19 passed the initial screening (% of inhibition > 80%), they were properly diluted, in accordance with what is reported in the literature.
Rhodesain was recombinantly expressed as previously described and Cbz-Phe-Arg-AMC (10 µM) was used as the fluorogenic substrate. The rhodesain-mediated hydrolysis released the fluorescent portion AMC, and fluorescence was measured at room temperature over a period of 30 min, using an Infinite 200 PRO microplate reader, and excitation (380 nm) and emission ([…]) filters were employed. The assay buffer was composed of 50 mM sodium acetate, 5 mM EDTA, 200 mM NaCl, and 0.005% Brij 35 with a pH equal to 5.5. Similarly, the enzyme buffer contained the same chemicals as the assay, with the exception of Brij, which was replaced by 1,4-dithiothreitol (DTT). All the SPR derivatives were solubilized in DMSO, which was also used as the negative control. E-64 protease inhibitor [76] was employed as the positive control. […] Each independent assay was performed twice and in duplicate, using 96 well-plates in a total volume of […]. The first order inactivation rate constants (kobs) were determined by means of nonlinear regression analysis of the progress curves (fluorescence (F) vs. time), and the equation F = A (1 − exp(−kobst)) + B was used. The obtained kobs values were fitted vs. the concentrations of tested inhibitors, and the equation kobs = kinact [I]/(Kiapp + [I]) provided the Kiapp and kinact values. Ki values were obtained using the equation Ki = Kiapp/(1 + [S]/Km), where Km is equal to 0.9 µM [77]. Grafit software was used for the nonlinear regression analysis to calculate kinact and Ki. The second-order rate constants k2nd were directly determined as k2nd = kinact/Ki.

[2] = system: T. b. brucei; conditions: 24 h; cited from earlier work
[3] = target: T1, rhodesain; set-up: method as in PMID 31714776; conditions: lead compound; read-out: Rhodesain (TbrCatL) Ki; cited from earlier work
[4] = target: T2, human Cathepsin L (hCatL) (Homo sapiens, UniProt P07711); set-up: method as in PMID 31714776; conditions: unit printed in cell (PS1, Table 1); cited from earlier work
T2 sequence (P07711 114-333): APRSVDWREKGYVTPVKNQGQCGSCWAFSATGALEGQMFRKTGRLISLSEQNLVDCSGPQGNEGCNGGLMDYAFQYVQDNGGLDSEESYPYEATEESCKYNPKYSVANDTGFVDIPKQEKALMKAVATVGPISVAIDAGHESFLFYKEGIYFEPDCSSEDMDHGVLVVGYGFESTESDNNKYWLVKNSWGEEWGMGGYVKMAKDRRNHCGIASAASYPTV

[5] = target: T2, human Cathepsin L (hCatL); test: hCatL fluorogenic enzyme assay (selectivity); format: biochemical; conditions: for inhibition at 100 µM: screening concentration 100 µM; for Ki: Km 6.5 µM
Method: In order to evaluate the selectivity towards the protozoan cysteine protease, all the new Michael acceptors were assayed against human Cathepsin L (hCatL), which represents the homologous protease of rhodesain in humans.
Similarly to rhodesain, the activity towards hCatL was evaluated as reported in the literature. The biological evaluation towards hCatL was performed using the same buffers, reader, fluorogenic substrate, and positive and negative controls as described above for rhodesain, and the preliminary screening was performed at 100 µM. In this case too, each independent assay was performed twice and in duplicate. Differently from rhodesain, Km is equal to 6.5 µM [77].

[6] = system: T. b. brucei; test: Antitrypanosomal activity, ATPlite assay; format: cell-based, Trypanosoma brucei brucei; conditions: 24 h
Method: The parasites used in this study were culture-adapted Trypanosoma brucei brucei of the cell line 449, descendants of the Lister strain 427 [79, 80]. The cells were grown in HMI-9 medium supplemented with 10% FCS, 50 U/mL penicillin, 50 µg/mL streptomycin, and 0.2 µg/mL phleomycin, at 37 °C and 5% CO2. EC50 values for the antitrypanosomal activity were determined using the ATPlite assay as previously described. Briefly, 10 mM compound stocks in DMSO were diluted to 333 µM in HMI-9 medium. This mixture was used to prepare nine further consecutive 1:2 dilutions in HMI-9 medium. Subsequently, 10 µL of diluted compound mixtures were added to 90 µL of media containing 2500 cell/mL in wells of a 96-well plate, in two separate triplicates. The highest DMSO concentration reached in compound plus cells mixture was 0.3%, and parasites treated with DMSO only were used as control. The cells were incubated for 24 h at 37 °C. Subsequently, 50 µL ATPlite 1 step solution (PerkinElmer) was added to each well and luminescence was measured using a CLARIOstar Plus plate reader (BMG Labtech).

[7] = system: HEK293 cells; test: Cytotoxicity assay, resazurin; format: cell-based; conditions: 24 h
Method: HEK293 cells were cultured in high-glucose DMEM medium with L-glutamine, supplemented with 10% FCS, 20 U/mL penicillin, and 20 µg/mL streptomycin, at 37 °C and 5% CO2. For the cytotoxicity assay, the cells were seeded in 400 µL at 60,000 cells per well of poly-lysine-coated 48-well plates, and incubated for 24 h at 37 °C. Compound stocks were diluted in DMSO in nine consecutive 1:2 steps, resulting in a set of ten dilutions with concentrations from 7 mM to […]. From each dilution, 4 µL were added to the cells in the 48-well plates, in two separate triplicates. Addition of only DMSO served as control. The plates containing cells plus compound dilutions were incubated for 21 h at 37 °C. Subsequently, the medium in each well was exchanged to a medium with resazurin (15 µg/mL), resulting in a final concentration of […]. The plates were incubated for 3 h at 37 °C. Finally, 100 µL of the solution from each well of the 48-well plate was transferred into a 96-well plate, and fluorescence was measured (excitation: 540-14, emission: 590-20) using a CLARIOstar Plus plate reader (BMG Labtech).

[8] = system: L-6 rat myoblast cells; set-up: method as in PMID 21200426; conditions: cytotoxicity; read-out: IC50 towards L-6 rat myoblast cells; cited from earlier work
[9] = Cbz-Phe-Arg-AMC 10 µM, pH 5.5, Km 0.9 µM, read-out: Rhodesain Ki

Compound | Ki [1, 9] [nM] | Rhodesain kinac ([1]; Cbz-Phe-Arg-AMC 10 µM) [min⁻¹] | Rhodesain k2nd [1] | inhibition at 100 µM [1] [%] | inhibition at 100 µM [5] [%] | other results
CC(C)C[C@H](NC(=O)[C@H]1O[C@@H]1C(=O)O)C(=O)NCCCCN=C(N)N [E-64, reference compound] | 33 ± 7 | 0.0085 ± 0.0008 | 263000 ± 30000 M⁻¹ min⁻¹ |  |  | 
CSc1ccc(OCc2ncc([N+](=O)[O-])n2C)cc1 [Fexinidazole] |  |  |  |  |  | EC50 [2]: 2380 ± 880 nM
CC(=O)C=CC(CCc1ccccc1)NC(=O)C(Cc1ccccc1)NC(=O)c1ccc(F)cc1 (stereo not shown) [PS-1] |  | 0.00094 ± 0.00007 | 8.384e+08 ± 1.066e+08 M⁻¹ min⁻¹ |  |  | Ki [3]: 0.0011 nM; Ki [4]: 1.9 ± 0.4 nM; EC50 [2]: 5100 ± 1000 nM
COC(=O)/C=C/[C@H](CCc1ccccc1)NC(=O)[C@H](Cc1ccccc1)NCc1ccccc1 [SPR10, Methyl (S,E)-4-((S)-2-(benzylamino)-3-phenylpropanamido)-6-phenylhex-2-enoate] | 5660 ± 300 | 0.0096 ± 0.0001 | 1703 ± 68 M⁻¹ min⁻¹ | > 80 | 16 | 
COC(=O)/C=C/[C@H](CCc1ccccc1)NC(=O)[C@H](Cc1ccccc1)NCc1ccc([N+](=O)[O-])cc1 [SPR11, Methyl (S,E)-4-((S)-2-((4-nitrobenzyl)amino)-3-phenylpropanamido)-6-phenylhex-2-enoate] | 430 ± 60 | 0.0023 ± 0.0001 |  | > 80 |  | Ki [5]: 36900 ± 2200 nM
COC(=O)/C=C/[C@H](CCc1ccccc1)NC(=O)[C@H](Cc1ccccc1)NCc1ccc(OC)cc1 [SPR12, Methyl (S,E)-4-((S)-2-((4-methoxybenzyl)amino)-3-phenylpropanamido)-6-phenylhex-2-enoate] | 4790 ± 1410 | 0.0062 ± 0.0014 | 1314 ± 91 M⁻¹ min⁻¹ | > 80 |  | Ki [5]: 18500 ± 3900 nM
COC(=O)/C=C/[C@H](CCc1ccccc1)NC(=O)[C@H](Cc1ccccc1)NCc1ccccc1F [SPR13, Methyl (S,E)-4-((S)-2-((2-fluorobenzyl)amino)-3-phenylpropanamido)-6-phenylhex-2-enoate] | 1580 ± 620 | 0.0038 ± 0.0003 | 2753 ± 885 M⁻¹ min⁻¹ | > 80 | 10 | 
COC(=O)/C=C/[C@H](CCc1ccccc1)NC(=O)[C@H](Cc1ccccc1)NCc1cccc(F)c1 [SPR14, Methyl (S,E)-4-((S)-2-((3-fluorobenzyl)amino)-3-phenylpropanamido)-6-phenylhex-2-enoate] | 1260 ± 80 | 0.0043 ± 0.0007 | 3398 ± 328 M⁻¹ min⁻¹ | > 80 | 35 | 
COC(=O)/C=C/[C@H](CCc1ccccc1)NC(=O)[C@H](Cc1ccccc1)NCc1ccc(F)cc1 [SPR15, Methyl (S,E)-4-((S)-2-((4-fluorobenzyl)amino)-3-phenylpropanamido)-6-phenylhex-2-enoate] | 2640 ± 130 | 0.0041 ± 0.0002 | 1552 ± 19 M⁻¹ min⁻¹ | > 80 | 10 | 
COC(=O)/C=C/[C@H](CCc1ccccc1)NC(=O)[C@H](Cc1ccccc1)NCc1ccc(F)cc1F [SPR16, Methyl (S,E)-4-((S)-2-((2,4-difluorobenzyl)amino)-3-phenylpropanamido)-6-phenylhex-2-enoate] | 220 ± 60 | 0.0014 ± 0.0001 |  | > 80 | 38 | EC50 ([6]; Trypanosoma brucei): 8700 ± 3000 nM; Cytotoxicity towards HEK293 cells: concentration up to which no relevant cytotoxicity was observed [7]: > 70 µM
COC(=O)/C=C/[C@H](CCc1ccccc1)NC(=O)[C@H](Cc1ccccc1)NCc1cc(F)ccc1F [SPR17, Methyl (S,E)-4-((S)-2-((2,5-difluorobenzyl)amino)-3-phenylpropanamido)-6-phenylhex-2-enoate] | 460 ± 160 | 0.0024 ± 0.0006 |  | > 80 | 12 | 
COC(=O)/C=C/[C@H](CCc1ccccc1)NC(=O)[C@H](Cc1ccccc1)NCc1c(F)cccc1F [SPR18, Methyl (S,E)-4-((S)-2-((2,6-difluorobenzyl)amino)-3-phenylpropanamido)-6-phenylhex-2-enoate] | 210 ± 10 | 0.0012 ± 0.0001 |  | > 80 | 26 | EC50 ([6]; Trypanosoma brucei): 7000 ± 1000 nM; Cytotoxicity towards HEK293 cells: concentration up to which no relevant cytotoxicity was observed [7]: > 70 µM
COC(=O)C=CC(CCc1ccccc1)NC(=O)C(Cc1ccccc1)NCc1ccc(C(F)(F)F)cc1 (stereo not shown) [SPR19] |  | 0.0023 ± 0.0002 |  | > 80 | 45 | Ki [1]: 410 ± 70 nM
COC(=O)/C=C/[C@H](CCc1ccccc1)NC(=O)[C@H](Cc1ccccc1)NC(=O)c1ccc(F)cc1 [SPR34, (S,E)-methyl 4-((S)-2-(4-fluorobenzamido)-3-phenylpropanamido)-6-phenylhex-2-enoate] | 5.8 ± 0.4 | 0.0050 ± 0.0003 | 870,606 ± 1178 M^−1 min^−1 |  |  | Selectivity Index (SI) (Ki hCatL/rhodesain) [5]: 603; Ki [5]: 3500 ± 1100 nM; EC50 [6]: 15800 ± 2000 nM; EC50 ([6]; Trypanosoma brucei): 16000 ± 2100 nM; Cytotoxicity towards HEK293 cells: concentration up to which no relevant cytotoxicity was observed [7]: > 70 µM
Nc1nc(N)nc(Nc2ccc([As]3SCC(CO)S3)cc2)n1 (stereo not shown) [melarsoprol] |  |  |  |  |  | IC50 [8]: 3300 nM
